Assay results: US12661308B2, “Antimicrobial AZO compounds and uses thereof” (The Regents Of The University Of Colorado, A Body Corporate, priority 2019, dated 2026)
“Also recorded” adds a separate entry of the source.

Experiments:
S. mutans [1] = assay: DIBAC4(3) membrane potential assay; type: cell-based, Streptococcus mutans
Procedure: Membrane potential assays were performed as described by Wu et al. with minor modifications. Wu et al., Antibacterial activity and membrane-disruptive mechanism of 3-p-trans-coumaroyl-2-hydroxyquinic acid, a novel phenolic compound from pine needles of Cedrus deodara, against Staphylococcus aureus, Molecules (2016), 21(8):1-12. S. mutans bacteria grown for 24 h in BHI broth were inoculated in a 96-well plate as described above. The plate was incubated for 8 h at 37° C. and 5% CO2. 2 μL of 0.1 mg/mL DIBAC4 (3) solution in DMSO was added to each well. The plate was then incubated in the dark overnight. The fluorescence reading was taken in a plate reader at λexcitation=492 nm and λemission=515 nm. Fluorescence values in bacteria-containing wells were normalized against fluorescence values containing the same substrate but no bacteria.

E. coli biofilm = assay: Biofilm growth study, E. coli; type: cell-based, Escherichia coli; details: 50 mg/mL coated substrate, 24 h time-period
Procedure: E. coli biofilms were grown from a 20 h BHI inoculated with an E. coli colony. The liquid culture was diluted 10^3 to a stock solution in BHI, then diluted 1:10 in BHI media in a 96-well plate. The plate was incubated in the dark at 37° C. for 24 h.
(§1) Following biofilm growth in the 96-well plate, the substrates were aseptically removed from the 96-well plate and placed in a vial containing 5 mL of 1× PBS solution. The vials were sonicated in a water bath for 10 min at 45° C., and the wells that previously contained the substrates were briefly sonicated using a probe sonicator (3 W RMS output) for 10 s per well. 200 μL aliquots of the sonicated PBS solution were placed in a 96-well plate and diluted 1:10 in each subsequent row. 20 μL aliquots of the sonicated media wells were placed in a 96-well plate containing 180 μL of PBS solution and diluted 1:10 in each subsequent row. Each column was then plated at a volume of 10 μL on a BHI agar plate in triplicate. The plates were then incubated at 37° C. and 5% CO2 for 48 h. The CFUs on each plate were counted in order to quantify the amount of biofilm remaining on the surface of the substrate and the bacteria remaining in the media after the removal of the substrate using the following equations: […]

S. mutans [2] = assay: Detachment study of S. mutans from OH-AAZO coated substrate with and without light (Example 2); type: cell-based, Streptococcus mutans; details: 50 mg/mL coating
Procedure: In this Example, detachment of S. mutans from a polymeric substrate coated with a 50 mg/mL OH-AAZO solution was evaluated. Four conditions were evaluated. The first is where the polymeric substrate is coated with OH-AAZO and exposed to light to produce a photofluidization effect due to the rapid trans cis isomerization (Azo, light or AL). The second is where the polymeric substrate is coated with OH-AAZO and not exposed to light (Azo, no light or ANL). The third is where the polymeric substrate is not coated with OH-AAZO and is exposed to light (no Azo, light or NAL). The fourth is where the polymeric substrate is not coated with OH-AAZO and is not exposed to light (no Azo, no light or NANL).

S. mutans biofilm = assay: Live-dead stain microscopy of S. mutans biofilms (Example 4); type: cell-based, Streptococcus mutans
Procedure: Microscope images were obtained using a Zeiss digital microscope at 6300× magnification using the FITC and CY3 channels. Following biofilm growth, the substrates were placed in a solution of live-dead stains (Invitrogen BacLight™) containing 1.5 μL Component A (SYTO® 9, green fluorescent nucleic acid stain) and 1.5 μL Component B (propidium iodide, red fluorescent nucleic acid stain) in 200 μL of sterile water. The substrates were soaked for 3 min, then gently washed in sterile water for 10 s, dried, and fixed to a glass slide prior to imaging.

[3] = test system: S. oralis (ATCC 9811) biofilm; assay: Biofilm growth study, S. oralis; type: cell-based, Streptococcus oralis; details: 50 mg/mL coated substrate, 24 h time-period
Procedure: S. oralis and A. actinomycetemcomitans were streaked on a BHI agar plate and incubated at 37° C. and 5% CO2 for 48 h. An isolated colony was inoculated in 5 mL BHI media for 12 h under the same incubation conditions, followed by a 1:10 dilution in BHI media in a 96-well plate containing the substrates of interest. […]
as §1

S. mutans [4] = assay: Kill curve kinetic study of S. mutans in media surrounding the coated substrate; type: cell-based, Streptococcus mutans
Procedure: FIG. 13 are images from a complete plating of media of S. mutans in contact with OH-AAZO-coated substrates at different timepoints following seeding. The media sampled shown in FIG. 13 (A) at t=0 h was serial diluted as described in Example 4 (below) and gave a total CFU count of (8.0±3.2)×10^6 CFUs. The media sampled shown in FIG. 13 (B) at t=4 h was streaked across the entire plate and gave a total CFU count of 8 CFUs. The media sampled shown in FIG. 13 (C) at t=24 h was streaked across the entire plate and gave a total CFU count of 0 CFUs.
We sampled aliquots of the media containing S. mutans surrounding the OH-AAZO substrate at different time points (FIG. 4). At t=0, S. mutans colonies (1×10^6 CFUs) were introduced to the OH-AAZO coated substrate. At t=4 h, the CFU count in the well was reduced 2-log, and by t=6 h, the CFU count had reduced to zero.

[5] = test system: S. pneumoniae (Pneumonococcus, Pn); assay: Growth study, S. pneumoniae; type: cell-based, Streptococcus pneumoniae; details: 50 mg/ML coated substrates, BHI media, 24 h time-period
Procedure: A single bacterial colony was inoculated in 4 mL BHI media. The colony was grown to mid-log phase (to approximately OD600=0.4), statically at 37° C., which for was approximately 4 hours for the S. agalactiae GBS, approximately 11 hours for the S. pyogenes GAS, and approximately 6 hours for the S. pneumaoniae. They were diluted 1:5 in 80% glycerol (in water) solution (4 parts culture, 1 part glycerol, for a final glycerol concentration of 16%). In a 96-well plate, each was diluted to 1:100 resulting in a final concentration of 1×10^6 CFU/mL and grown at 37° C. with 5% CO2.

C=CC(=O)Oc1ccccc1/N=N/c1ccccc1O [OH-AAZO, phenolic acrylated azobenzene]
DIBAC4(3) fluorescence of S. mutans (S. mutans [1]; 5 mg/mL coated substrate, relative to uncoated control): slight reduction | DIBAC4(3) fluorescence of S. mutans (S. mutans [1]; 25 mg/mL coated substrate): drop in fluorescence to zero | DIBAC4(3) fluorescence of S. mutans (S. mutans [1]; 50 mg/mL coated substrate): drop in fluorescence to zero; also recorded: dropped to zero | antibacterial effect on E. coli biofilm (CFUs) (E. coli biofilm): no discernable antibacterial effect or reduction in CFUs | S. mutans growth (S. mutans [2]; exposed to light (AL), over 48 hr): no growth | S. mutans growth (S. mutans [2]; no light (ANL), first 33 hr): minimal growth | S. mutans growth (S. mutans [2]; no light (ANL), t=48 hr): some minimal biofilm growth | live and dead bacteria on substrate, live-dead stain (S. mutans biofilm; 1.5% OH-AAZO bulk substrate, 24 h): high amounts of dead bacteria (lighter) and little to no live bacteria; also recorded: did not grow | live and dead bacteria on substrate, live-dead stain (S. mutans biofilm; 2% OH-AAZO bulk substrate, 24 h): high amounts of dead bacteria (lighter) and little to no live bacteria; also recorded: did not grow | live and dead bacteria on substrate, live-dead stain (S. mutans biofilm; coated substrate, 24 h biofilm growth, compared to uncoated control): high amounts of dead bacteria (lighter) and little to no live bacteria | S. oralis growth on coated substrate and in media [3]: did not grow on the coated substrate nor in the media; also recorded: antibacterial effect was only observed | total CFU count, complete plating of media (S. mutans [4]; t=0 h, serial diluted): (8.0±3.2)×10^6 CFUs | reduction of CFU count in the well (S. mutans [4]; t=4 h, from 1×10^6 CFUs at t=0): 2 log | total CFU count, complete plating of media (S. mutans [4]; t=4 h, streaked across the entire plate): 8 CFUs | S. mutans CFU count in the media (S. mutans [4]; t=6 h): zero and complete S. mutans death and absence of S. mutans | S. pneumoniae growth on coated substrate and in media [5]: did not grow on the coated substrate nor in the media
